Experimental data: US4918077A, “3-phenyl-5,6-dihydrobenz(c)acridine-7-carboxylic acids and related compounds as cancer chemotherapeutic agents” (E. I. Du Pont de Nemours & Co., Inc., priority 1989, dated 1990)
Converted amounts (≈) assume the structure as drawn.

Experiments:
L1210 leukemia = test: L1210 Murine Leukemia Test; type: in vivo, mouse; details: intraperitoneal, once daily for nine days
Description: (§1) The efficacy of the compounds of this invention against transplanted mouse tumors was evaluated in test systems which are used by the National Cancer Institute for the detection and assessment of anticancer activity. […] J. Cancer, 17, 129-142, (1981); Venditti, J. M., Seminars in Oncology, 8(4)(1981); Goldin, A. and J. M. Venditti in Recent Results in Cancer Research, 70, S. K. Carter and Y. Sakurai, Eds., Springer-Verlag, Berlin/Heidelberg, 1980].
The L1210 tumor line originated in 1948 as a lymphocytic leukemia in a female DBA/2 mouse after the skin was treated with 0.2% 20-methylcholanthrene in ethyl ether. The tumor line is maintained by serial passage in female DBA/2 mice.
On day, 0, female CDF1 mice weighing 18-22 g are inoculated with 1×10^5 L1210 leukemia cells harvested from the ascites of DBA/2 mice. The mice are randomized into groups of six each and the test compounds and vehicle control are administered intraperitoneally once daily for nine consecutive days beginning on day 1. A ≥20% decrease in body weight on day 5 is considered an indication of toxicity. The acceptable control mean survival time is 8-11 days.
Results are expressed as percentage of the mean survival time of the vehicle-treated control group according to the formula: [formula] Mice which survive for 30 days are considered cured and are not included in the calculation of the mean survival time.
The NCI criteria for activity is used. A compound is considered to have moderate activity against L1210 leukemia if it has a % T/C≥125%, and it is considered to have good activity against L1210 leukemia if it has a % T/C≥150%.

[1] = test system: human melanoma RPMI-7272 cells; test: In Vitro RPMI-7272 Human Melanoma Test; type: cell-based; details: 72 hours after addition of compound, read-out: ID50 (dose required to inhibit the number of cell doublings by 50%)
Description: The compounds of this invention were also tested for their ability to inhibit the growth of human melanoma RPMI-7272 cells in vitro.
Cells are seeded at 3×10^5 per 35 mm plate to initiate growth inhibition studies. Cultures to receive growth medium only (control cultures) are set up in quadruplicate; cultures to receive varying concentrations of compounds are set up at one dish per dose of compound. Twenty-four hours post-seeding, duplicate control cell cultures are trypsinized and cells are counted using a Coulter Counter (day 1 control counts). At this time, varying concentrations of test compounds, from 100 to 0.00001 μg/mL are added to cultures and growth medium only is added to control cultures. Seventy-two hours after the addition of compound, cells are trypsinized and counted. The numbers of cell population doublings (day 4) in the presence or absence of compound are calculated.
Compounds are dissolved at 10-25 mg/mL in dimethylsulfoxide. Dilutions to 1 mg/mL in complete growth medium are made, followed by stock preparations of 100 and 30 μg/mL in complete growth medium. Serial ten-fold dilutions in complete medium are formulated from the 100 and 30 μg/mL stocks, respectively, and added to cultures.

[2] = test system: DLD-2 human colon carcinoma xenograft; test: DLD-2 Human Colon Carcinoma Xenograft Test; type: in vivo, human tumor in athymic (NU/NU) mice; details: dose 50 mg/kg, intraperitoneal, once daily for nine days
Description: as §1
The DLD-2 tumor line was orignally obtained from a primary colon carcinoma surgically removed from a patient. The line is maintained by serial passage in athymic nude mice.
On day 0, male and female outbred Swiss mice bearing the NU/NU gene and weighing 22-30 g are inoculated with 0.2 mL of a 25% tumor mince. […] Tumor measurements and weights are recorded once a week. […]
The efficacy of the test compounds is determined by the extent of tumor growth inhibition in treated versus vehicle-treated control mice. Initial tumor weights (mg) are calculated from the tumor dimensions (mm) using the formula for the volume of a prolate ellipsoid (L×W^2 /2). Net tumor weights are calculated for each of the treated groups and the vehicle-treated control group by subtracting the initial tumor weight (estimated) from the final tumor weight (actual) on day 19. […] Results are expressed as percent inhibition of control growth according to the formula: [formula] […]

B16 melanoma = test: B16 Murine Melanoma Test; type: in vivo, mouse; details: intraperitoneal, once daily for nine days
Description: as §1
The B16 tumor line arose spontaneously in 1954 on the skin at the base of the ear of a C57BL mouse. The tumor line is maintained by serial passage in female C57BL mice.
On day 0, female B6C3F1 mice are inoculated intraperitoneally with 0.5 mL of a 10% tumor brei. This brei is prepared by homogenizing fresh B16 tumors, grown subcutaneously in C57BL mice, in cold physiological saline. Mice are randomized in groups of ten each, with 20 animals being in the control group. The test compounds and vehicle control are administered intraperitoneally once daily for nine consecutive days beginning on day 1. A ≥20% decrease in body weight on day 5 is considered an indication of toxicity. The acceptable mean control survival time is 14-22 days. Results are expressed as a percentage of the mean survival time of the vehicle-treated control group according to the formula: [formula] […]

Compound | % T/C (mean survival time, percentage of vehicle-treated control) (L1210 leukemia; dose 100 mg/kg) [%] | IC50 [1] [µg/mL] | % Inhibition (tumor growth) [2] [%] | % T/C (mean survival time, percentage of vehicle-treated control) (B16 melanoma; dose 35 mg/kg) [%] | % T/C (mean survival time, percentage of vehicle-treated control) (L1210 leukemia; dose 50 mg/kg) [%] | % T/C (mean survival time, percentage of vehicle-treated control) (B16 melanoma; dose 50 mg/kg) [%]
O=C(O)c1c2c(nc3ccccc13)-c1ccc(-c3ccccc3)cc1CC2 [Example 1, 5,6-Dihydro-3-phenylbenz[c]acridine-7-carboxylic acid] | 178 | 14.1 (≈ 40.1 µM) |  |  |  | 
O=C(O)c1c2c(nc3ccc(F)cc13)-c1ccc(-c3ccccc3)cc1CC2 [Example 3, 5,6-Dihydro-9-fluoro-3-phenylbenz[c]acridine-7-carboxylic acid] | 180 | 0.05 (≈ 0.135 µM) | 70 | 134 |  | 
O=C([O-])c1c2c(nc3ccc(F)cc13)-c1ccc(-c3ccccc3)cc1CC2.[Na+] [Example 12, 5,6-Dihydro-9-fluoro-3-phenylbenz[c]acridine-7-carboxylic acid, sodium salt] |  | 0.06 |  |  | 171 | 140
O=C(O)c1c2c(nc3ccccc13)-c1cc3sc4ccccc4c3cc1CC2 [Example 24] |  | 1.96 (≈ 5.14 µM) |  |  |  | 
O=C(O)c1c2c(nc3ccc(F)cc13)-c1cc3sc4ccccc4c3cc1CC2 [Example 27, 6,7-Dihydro-3-fluoro[1]-benzothieno[2',3':4,5]benz[1,2-c]acridine-5-carboxylic acid] | 149 | 1.4 (≈ 3.5 µM) |  |  |  | 
